Source: patent publication US7947726B2, “Non-steroidal ligands for the glucocorticoid receptor, and compositions thereof” (The Regents of the University of California, priority 2002, dated 2011)
Several values for one entry are separate records, joined by “and”; a condition that tells them apart may be missing. Identical values can stand only once.

Columns and labels:
[1] = biological target: T1, glucocorticoid receptor (GR) (Homo sapiens, UniProt P04150); experiment: Glucocorticoid Receptor Competitor Assay Kit (Panvera) ligand binding; details: relative binding affinity, dexamethasone = 100; for GR binding RBA (dex = 100): Table 3
T1 construct: purchased Panvera Corp, Madison, Wis
T1 sequence (P04150 1-777): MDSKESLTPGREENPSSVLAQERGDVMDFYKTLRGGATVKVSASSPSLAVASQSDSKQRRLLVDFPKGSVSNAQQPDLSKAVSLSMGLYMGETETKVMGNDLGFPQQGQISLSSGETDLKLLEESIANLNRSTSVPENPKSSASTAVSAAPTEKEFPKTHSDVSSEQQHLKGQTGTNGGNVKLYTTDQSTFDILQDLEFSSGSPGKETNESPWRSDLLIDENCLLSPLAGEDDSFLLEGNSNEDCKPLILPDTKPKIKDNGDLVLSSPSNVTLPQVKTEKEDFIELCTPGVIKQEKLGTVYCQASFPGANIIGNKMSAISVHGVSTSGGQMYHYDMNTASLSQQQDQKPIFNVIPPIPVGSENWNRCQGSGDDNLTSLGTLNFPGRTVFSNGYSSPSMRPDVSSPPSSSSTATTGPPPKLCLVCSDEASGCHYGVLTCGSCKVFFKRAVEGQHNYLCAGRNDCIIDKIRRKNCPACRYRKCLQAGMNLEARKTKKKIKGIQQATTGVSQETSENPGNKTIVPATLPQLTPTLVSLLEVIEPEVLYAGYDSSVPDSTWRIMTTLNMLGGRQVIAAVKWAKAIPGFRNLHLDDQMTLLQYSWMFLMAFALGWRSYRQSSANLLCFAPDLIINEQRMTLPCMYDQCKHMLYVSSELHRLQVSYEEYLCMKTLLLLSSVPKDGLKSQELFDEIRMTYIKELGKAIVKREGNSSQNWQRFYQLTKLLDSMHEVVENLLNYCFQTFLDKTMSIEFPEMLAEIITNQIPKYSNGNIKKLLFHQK
Excerpt: The Glucocorticoid Receptor Competitor Assay Kit (Panvera Corp, Madison, Wis.) was used for ligand binding studies. The recommended room temperature protocol was followed for all assayed ligands.

[2] = biological target: T2, PR (Homo sapiens, UniProt P06401); experiment: PR activation (max fold activation); type: cell-based; details: Table 4
T2 sequence (P06401 1-933): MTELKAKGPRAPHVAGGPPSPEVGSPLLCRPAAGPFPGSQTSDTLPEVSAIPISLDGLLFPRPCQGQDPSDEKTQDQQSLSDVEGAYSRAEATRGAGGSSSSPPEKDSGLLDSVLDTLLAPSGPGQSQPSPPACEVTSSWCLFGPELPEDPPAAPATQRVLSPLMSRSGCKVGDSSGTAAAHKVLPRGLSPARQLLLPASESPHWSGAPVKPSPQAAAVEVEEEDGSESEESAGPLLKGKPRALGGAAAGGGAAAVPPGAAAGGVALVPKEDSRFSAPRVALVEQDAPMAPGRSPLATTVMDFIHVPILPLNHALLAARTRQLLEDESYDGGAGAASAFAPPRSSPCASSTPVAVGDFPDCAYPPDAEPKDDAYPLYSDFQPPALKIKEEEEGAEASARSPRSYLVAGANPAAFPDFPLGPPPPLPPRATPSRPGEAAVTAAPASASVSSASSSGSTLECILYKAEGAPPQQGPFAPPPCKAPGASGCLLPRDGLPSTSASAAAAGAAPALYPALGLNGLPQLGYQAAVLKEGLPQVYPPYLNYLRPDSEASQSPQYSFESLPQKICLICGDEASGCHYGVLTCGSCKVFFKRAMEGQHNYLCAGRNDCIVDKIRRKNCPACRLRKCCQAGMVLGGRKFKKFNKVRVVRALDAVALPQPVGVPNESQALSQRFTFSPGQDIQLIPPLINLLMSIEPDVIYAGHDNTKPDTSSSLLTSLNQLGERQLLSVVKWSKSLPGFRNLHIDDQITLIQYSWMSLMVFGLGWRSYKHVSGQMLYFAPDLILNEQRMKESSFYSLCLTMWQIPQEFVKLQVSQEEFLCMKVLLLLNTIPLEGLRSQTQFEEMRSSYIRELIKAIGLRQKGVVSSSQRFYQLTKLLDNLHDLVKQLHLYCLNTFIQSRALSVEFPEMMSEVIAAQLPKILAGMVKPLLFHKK

[3] = biological target: T3, MR (Homo sapiens, UniProt P08235); experiment: MR activation (max fold activation); type: cell-based; details: Table 4
T3 sequence (P08235 1-984): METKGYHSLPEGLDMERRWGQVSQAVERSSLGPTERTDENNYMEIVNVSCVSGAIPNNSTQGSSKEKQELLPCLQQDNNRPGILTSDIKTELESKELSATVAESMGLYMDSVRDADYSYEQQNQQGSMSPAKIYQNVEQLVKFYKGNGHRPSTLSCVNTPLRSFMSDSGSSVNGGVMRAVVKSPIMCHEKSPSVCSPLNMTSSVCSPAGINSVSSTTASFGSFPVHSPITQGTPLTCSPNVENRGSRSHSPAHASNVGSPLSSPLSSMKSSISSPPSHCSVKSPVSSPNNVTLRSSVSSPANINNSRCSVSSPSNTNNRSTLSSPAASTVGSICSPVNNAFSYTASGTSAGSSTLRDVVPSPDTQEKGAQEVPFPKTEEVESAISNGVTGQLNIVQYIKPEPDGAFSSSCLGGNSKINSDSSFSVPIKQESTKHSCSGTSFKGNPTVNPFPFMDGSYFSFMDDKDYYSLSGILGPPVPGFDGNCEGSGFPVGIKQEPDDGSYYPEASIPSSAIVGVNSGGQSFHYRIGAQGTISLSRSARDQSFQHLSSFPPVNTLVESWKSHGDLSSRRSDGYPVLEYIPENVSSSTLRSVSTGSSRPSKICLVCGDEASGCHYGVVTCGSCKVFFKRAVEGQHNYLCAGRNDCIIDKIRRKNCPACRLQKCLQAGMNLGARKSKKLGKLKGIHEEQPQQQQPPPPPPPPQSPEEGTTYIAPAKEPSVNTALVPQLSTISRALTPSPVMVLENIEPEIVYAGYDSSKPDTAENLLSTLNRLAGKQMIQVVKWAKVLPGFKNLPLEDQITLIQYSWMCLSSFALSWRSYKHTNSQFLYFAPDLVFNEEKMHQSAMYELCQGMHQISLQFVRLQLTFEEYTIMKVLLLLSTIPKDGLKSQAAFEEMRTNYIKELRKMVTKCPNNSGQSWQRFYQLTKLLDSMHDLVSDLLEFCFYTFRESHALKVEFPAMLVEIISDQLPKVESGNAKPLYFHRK

GR Binding RBA (dexamethasone = 100) ([1]; Table 1)	GR binding RBA (dex = 100) [1]	PR max fold activation [2]	MR max fold activation [3]	Compound
50	103	144 ± 32	3.2 ± 0.9	Cc1cc(O)cc(C)c1C(O)C1CCCC2=Cc3c(cnn3-c3ccc(F)cc3)CC21C (centres unmarked) [Compound 227, 4-{[1-(4-Fluoro-phenyl)-4a-methyl-4,4a,5,6,7,8-hexahydro-1H-benzo[f]indazol-5-yl]-hydroxy-methyl}-3,5-dimethyl-phenol]
	110		5.0 ± 1.5	CC12Cc3cnn(-c4ccc(F)cc4)c3C=C1CCCC2C(O)c1cccc2[nH]ccc12 (centres unmarked) [Compound 237, [1-(4-Fluoro-phenyl)-4a-methyl-4,4a,5,6,7,8-hexahydro-1H-benzo[f]indazol-5-yl]-(1H-indol-4-yl)-methanol]
		155 ± 32 and 109 ± 10	6.2 ± 0.9	CC12Cc3cnn(-c4ccc(F)cc4)c3C=C1CCCC2C(O)c1ccsc1 (centres unmarked) [Compound 238, [1-(4-Fluoro-phenyl)-4a-methyl-4,4a-5,6,7,8-hexahydro-1H-benzo[f]indazol-5-yl]-thiophen-3-yl-methanol]
